Experimental data published in US12453725B2, “Treatment of inflammatory disease” (Celleron Therapeutics Limited, priority 2019, dated 2025).

Columns and labels:
histone H3 acetylation = test: Histone H3 acetylation, SW620 cells (western blot); type: cell-based, human; details: SW620, 72 hours
Protocol: Cell pellets were lysed in TNN buffer, for 30 minutes on ice and centrifuged for another 30 minutes at maximum speed at 4° C. Protein concentration was assessed by Bradford assay (Quick Start™ Bradford 1× Dye Reagent, Bio-Rad Laboratories, USA). After gel electrophoresis, proteins were transferred onto the PVDF membrane by means of Trans-Blot® Turbo™ Transfer System (Bio-Rad Laboratories, USA) and blocked by 1 h incubation in 5% skim milk (Merck Group, Germany) in PBST at RT. To confirm acetylation induced by CXD101, membranes were incubated with anti-H3 (ab1791, abcam) antibody, anti-H3Ack9 (ab10812, abcam) in case of CT26 cells, and for SW620 with H3Ack14 antibody (#7627, Cell Signaling) overnight, at 4° C. Next, membranes were washed and treated with secondary antibody for 1 h at RT. Chemiluminescent signals were detected by LICOR C-Digit (LI-COR Biosciences, USA), and the data quantified using ImageJ software (National Institutes of Health, USA).

physchem = details: 25 °C, aqueous buffer
SW620 cells = test: RNA-seq, SW620 cells; type: cell-based, human
Protocol: SW620 cells were seeded into 6-well plates and left to adhere overnight. Cells were treated with 1 μM, 10 μM of CXD101 for 48 h. CT26 cells were seeded onto 100 mm plates and treated with 2.7 μM and 10 μM CXD101 for 72 h. After treatment cells were harvested and total RNA extracted by means of Promega ReliaPrep™ RNA Cell Miniprep System (Promega, USA). RNA was dissolved in RNAse free water and stored in −80° C. for future analysis. RNA concentration was measured by NanoDrop 2000 (Thermo Fisher Scientific, USA). Samples were qualified for library preparation if […]. Library preparation with poly (A) enrichment was performed by BGI.
FASTQ files for CXD101 and DMSO treated samples in three biological replicates were trimmed to remove adapters and low-quality bases with TrimGalore v.0.4.3 (http://www.bioinformatics.babraham.ac.uk/projects/trim_galore/). The trimmed reads were aligned to the human reference genome (build hg19) with STAR aligner v.2.7 with two mismatches allowed. Differential gene expression analysis was done with the Bioconductor framework (v.3.8) and DESeq2 R package v.1.22, using read count data provided by the aligner. Genes were considered differentially expressed if the adjusted P, calculated using the Benjamini-Hochberg method in order to minimise the false discovery rate, was less than 0.01 (1%) and the change in expression level was greater than ˜2-fold as compared to DMSO control (e.g. |log_2(expression fold change)|>1).

[1] = Phase Ib/II clinical trial CTL-101-023, CXD101 with nivolumab, safety; type: in vivo, human; details: study CTL-101-023
Protocol: A clinical trial was conducted involving 55 subjects. The clinical trial protocol is summarized below: • Protocol Number: CTL-101-023 • Investigational Product: CXD101 and nivolumab Active Ingredient(s)/INN: • CXD101 or N-(2-aminophenyl)-4-(1-[(1,3-dimethyl-1H-pyrazol-4yl) methyl]piperidin-4-yl)benzamide is a Class I-selective histone deacetylase (HDAC) inhibitor. • Nivolumab is a programmed death receptor-1 (PD-1)-blocking antibody. […] 2. […] Subjects may continue to receive CXD101/nivolumab until complete response, disease progression, unacceptable toxicity, withdrawal of consent, or other medical problems supervene. • Efficacy will be measured using Immune Response Evaluation Criteria in Solid Tumours (iRECIST) Imaging studies, typically CT scan of chest, abdomen & pelvis, supplemented by MRI of liver when required, will be performed at Baseline and after every 6 weeks, with objective confirmation of response 6 weeks (+/−1 week) after observation. • Safety parameters will be assessed as in the Phase I study. […]

Compound: Cc1nn(C)cc1CN1CCC(c2ccc(C(=O)Nc3ccccc3N)cc2)CC1 [CXD101, N-(2-aminophenyl)-4-(1-[(1,3-dimethyl-1H-pyrazol-4-yl)methyl]piperidin-4-yl)benzamide]
- acetylation on histone H3 lysine (histone H3 acetylation): increased level of acetylation
- solubility (physchem): ≥ 500 µg/mL
- share of DEGs down-regulated (SW620 cells; SW620): 30%
- share of DEGs up-regulated (SW620 cells; SW620): 70%
- number of differentially expressed transcripts (SW620 cells; log 2 FC >1 and FDR <1%): about 2500
- neutropenia due to myelosuppression [1]: varying degrees of neutropenia
